Positions of bridges follow the written chain, without caps; N, C: chain ends. No end group written: not given here.
Tests used:
Ph1 phage particles = assay: Phage infectivity studies (titre of infective phage after linker treatment); details: Figure 4d; phage treated with DTT (1 mM) only
Procedure: CCA: Ph1 phage particles (~ 10^11) were reduced with DTT (1 mM) for 30 min at 37 °C in a total volume of 95 µL. Linker CCA (final concentration = 150 µM) in DMSO (5% total volume) was added and the reaction was left to incubate for 2 h at room temperature. DBX: Ph1 phage particles (~ 10^11) were reduced with TCEP (1 mM) for 30 min at 37 °C in a total volume of 95 µL. Reduced Ph1 phage particles were buffer exchanged into NH4HCO3 (20 mM, pH 8.0) using Zeba™ Spin Desalting Columns (7 K MWCO, 0.5 mL) following the manufacturer’s instructions. Linker DBX (final concentration = 150 µM) in DMSO (5% total volume) was added and the reaction was left to incubate for 2 h at room temperature.
For each sample, two 100-fold dilutions in 2xTY were prepared. An aliquot (10 μL) of the 10^−4 dilution sample was added to TG1 E. coli (990 µL) grown to OD600nm = 0.6. After 1 h of infection at 37 °C and 150 RPM, four further 10-fold dilutions in 2xTY were prepared (10^−7 – 10^−10). Aliquots (100 µL) of dilution samples 10^−7 – 10^−10 were plated O/N on 2xTYAG agar at 37 °C. The next day, phage titres were calculated according to the equation.
Cfu/mL = [No. of colonies] x [Dilution factor] x [1/Volume plated (mL)].

streptavidin [1] = target: T1, streptavidin (Streptomyces avidinii, UniProt P22629); assay: Streptavidin-binding phage ELISA; details: for Phage ELISA signal, Linear: Figure 6a, peptide linear (reduced using DTT), bound phage detected with anti-M13-HRP; for Phage ELISA signal, Linear / Phage ELISA signal, Lin: phage clone; for Phage ELISA signal, Lin: Figure 6b, peptide linear; for Binding to streptavidin in phage ELISA (in words): phage-displayed peptide, form as stated in the sentence (CCA replaced with linkers 1, 2, 3 or 4; CCA-cyclized negative control)
T1 sequence (P22629 25-183): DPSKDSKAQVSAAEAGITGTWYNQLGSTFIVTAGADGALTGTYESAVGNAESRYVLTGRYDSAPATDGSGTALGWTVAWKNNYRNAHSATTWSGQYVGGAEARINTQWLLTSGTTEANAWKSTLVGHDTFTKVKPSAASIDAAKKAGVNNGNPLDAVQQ
Procedure: All incubation steps were performed at room temperature unless otherwise stated. A Pierce™ streptavidin-coated 96 well plate (Thermo Fisher Scientific) was treated O/N at 4 °C with biotinylated antigen (50 µL/well, 10 ng/µL in assay buffer). The next day, the plate was washed x3 with PBS to remove unbound antigen and incubated for 1 h with blocking buffer (300 µL/ well). At the same time, phage cultures (100 µL, ~ 10^10) were incubated for 1 h with blocking buffer (400 µL).
The 96-well plate was washed x3 with PBS and subsequently incubated with blocked phage (50 µL/ well) for 1 h. The plate was washed x3 with PBST, and bound phage was detected via the addition of anti-M13 HRP conjugated secondary antibody (50 µL/ well, 1/5000 dilution in blocking buffer, Abcam). After 1 h, the plate was washed x3 with PBST. HRP was developed using TMB substrate (50 µL/ well, Thermo Fisher Scientific), quenched after 5 min with H2SO4 (50 µL/ well, 0.5 M) and visualised at λ = […] using an EnVision Microplate Reader (PerkinElmer). Data was processed using SoftMax® Pro Software v7. […]
Biotinylated antigen = none required, assay buffer = N/A, blocking buffer = 3% (w/v) mPBS.

streptavidin [2] = target: T1, streptavidin; assay: Sequencing of clones enriched after three rounds of selection of library L1-CCA against streptavidin; details: clones sequenced after three rounds of selection against streptavidin
Procedure: Streptavidin-coated magnetic Dynabeads™ (50 μL/ selection, prewashed with 1 mL PBS) were blocked with 3% (w/v) mPBS (1 mL) for 1 h on a rotary mixer at room temperature and 20 RPM. L1 phage particles (~ 10^11) were reduced with DTT (1 mM) for 30 min at 37 °C in PBS (total reaction volume = 100 µL). The beads were pelleted on a magnetic stand and reduced L1 phage particles (~ 10^11) were added. After 1 h on a rotary mixer at room temperature and 20 RPM, the beads were pelleted and the supernatant was transferred to a fresh Eppendorf. Linker CCA (final concentration = 150 µM) in DMSO (5% total volume) was added and the reaction was left to incubate for 2 h at room temperature.
L1-CCA: Output phage from the negative streptavidin selection above.
L1-Red/ L1-CCA input phage (~ 10^11) and streptavidin-coated magnetic Dynabeads™ (50 μL/ selection, prewashed with 1 mL PBS) were incubated with 3% (w/v) mPBS (volume made up to 500 μL for phage, 1 mL for beads) for 1 h on a rotary mixer at room temperature and 20 RPM. The beads were pelleted on a magnetic stand and resuspended in 3% (w/v) mPBS (100 μL). An aliquot of the blocked beads (50 μL) was added to the blocked phage. The mixture was incubated for 1 h on a rotary mixer at room temperature and 20 RPM.
Using a Kingfisher mL apparatus, the beads were washed x5 with PBST (1 mL) and eluted into trypsin solution (10 µg/ mL trypsin in 0.1 M pH 7.0 sodium phosphate buffer, 200 µL). Trypsin digest was performed for 30 min at 37 °C and 600 RPM, the beads were pelleted and the supernatant was added to OD600nm = 0.6 TG1 E. coli (800 µL). After 1 h at 37 °C and 250 RPM, output titres were performed and the remaining cells were plated O/N on a 2xTYAG bioassay plate at 37 °C. The next day, the cells were harvested from the plate, as described below.

streptavidin [3] = target: T1, streptavidin; assay: SPR binding of synthetic peptides to immobilised streptavidin (Biacore 8K); details: synthetic peptide as disulphide-bonded entity, 25 °C, 4.1-9000 nM, HBS-EP+ pH 7.4
Procedure: The affinity of peptides Str1 and Str1-CCA to streptavidin was measured using the Biacore 8 K (GE Healthcare) at 25 °C.
For cyclization, peptide Str1 (5 mg, GL Biochem) was dissolved in PBS (20 mL) and treated with DTT (1.2 eq.) for 1 h at RT then linker CCA (2 eq.) for 3 h at RT. The reaction was purified by RP-HPLC and characterised by LC-MS to confirm the correct identity of the cyclized product, Str1-CCA. Str1 = 1351 Da and Str1-CCA = 1601 Da.
Streptavidin was covalently immobilised to a CM5 chip surface (Cytiva, BR100530, lot 10340325) using standard amine coupling techniques at a concentration of 16 µg/ml in 10 mM sodium acetate pH 4.5.
The peptides were serially diluted (4.1 – 9000 nM) in HBS-EP + buffer pH 7.4 and flowed over the chip at 30 µL/min, with 180 s association and 600 s dissociation. Multiple buffer-only injections were made under the same conditions to allow for double reference subtraction of the final sensorgram sets, which were analysed using Biacore 8 K Evaluation Software. Each experiment was repeated three times, which gave consistent results. Representative results are presented in the paper.

Compound | Phage ELISA signal, Linear (streptavidin [1]) | Abundance (Total = 96) (streptavidin [2]) | also measured
O[C@@H](CS)[C@@H](O)CS [DTT, reference compound] | – | – | Phage titre (Ph1 phage particles): 1.30E+11 Cfu/mL
CGGSGGC [negative control phage construct, reference compound] | 0.052 | – | Phage ELISA signal, Lin (streptavidin [1]): 0.065; Binding to streptavidin in phage ELISA (in words) (streptavidin [1]): No binding
CPFNFFIWNDEC [Str9, phage clone displaying streptavidin-selected peptide] | 0.315 | 2 | –
CPFNIASPFYGC [Str6, phage clone displaying streptavidin-selected peptide] | 0.254 | 12 | –
CPFNIKNPDDGC [Str2, phage clone displaying streptavidin-selected peptide] | 0.111 | 7 | –
CPFNILVPFIDC [Str4, phage clone displaying streptavidin-selected peptide] | 0.254 | 5 | –
CPINIFHPPPDC (disulfide 1-12 (inferred)) [Str1, streptavidin-selected peptide; tested as phage clone and as synthetic disulphide-bonded peptide] | 0.115 | 42 | SPR signal (in words) (streptavidin [3]): no SPR signal observed
CPINVQYSTGTC [Str7, phage clone displaying streptavidin-selected peptide] | 0.032 | 1 | Phage ELISA signal, Lin (streptavidin [1]): 0.106; Binding to streptavidin in phage ELISA (in words) (streptavidin [1]): no binding
CPTNTQYDLTIC | – | 4 | –
CPYNIAGPPLYC [Str3, phage clone displaying streptavidin-selected peptide] | 0.123 | 13 | –
CPYNIINPTFDC [Str5, phage clone displaying streptavidin-selected peptide] | 0.096 | 8 | –
CPYNVERPDSHC [Str8, phage clone displaying streptavidin-selected peptide] | 0.029 | 2 | –
CWLNHPQAPPEC [reference compound] | 1.437 | – | –

From paper PMC11344848, “Proximity-driven site-specific cyclization of phage-displayed peptides” (Nature Communications, 2024)
